# Earlier results in US8758840B2, “Method of treating areas of osteoarthritis in animals and human beings with milkweed seed oil” (Natural Fibers Corporation, priority 2011, dated 2014).
# System: pro-inflammatory and matrix degradation mediators involved in osteoarthritis-induced cartilage degradation
# Settings: laboratory tests, Gabay et al. 2010
compound,measurement,value
CC[C@H](/C=C/[C@@H](C)[C@H]1CC[C@H]2[C@@H]3CC=C4C[C@@H](O)CC[C@]4(C)[C@H]3CC[C@]12C)C(C)C [stigmasterol],effect on pro-inflammatory and matrix degradation mediators,inhibits several pro-inflammatory and matrix degradation mediators
